Data reported in the supplement of paper PMC10307832.

What was measured:
Assay in all cases: relative viability (nuclei count vs DMSO), 5 days (fraction); higher = more cells survive
[1] = compound: C1=CC2=NC=CN=C2C=C1/C=C/3\C(=O)NC(=O)S3 + Nc1ncn([C@H]2C[C@H](O)[C@@H](CO)O2)c(=O)n1 [Decitabine] (partner 2 µM)
Outline: (§1)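 Lung cancer cell lines were seeded in 1536-well plates and dosed by pin tool the next day, with either a single drug or a fixed anchor-drug dose combined with five library-drug doses (not always all listed) spaced in √10 steps. Five days later, one step fixed the cells and stained their nuclei (final 0.05% Triton X-100, 1% formaldehyde, 1 ug/ml Hoechst), and nuclei were counted on 4× images. Relative viability is the nuclei count in treated wells divided by the count in vehicle wells, and each value is the median of duplicate plates.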

[2] = compound: C1=CC2=NC=CN=C2C=C1/C=C/3\C(=O)NC(=O)S3 + O=C(CCCCCCC(=O)Nc1ccccc1)NO [Vorinostat] (partner 1 µM)
Outline: as §1

BGJ398 + Lapatinib = compound: CCN1CCN(c2ccc(Nc3cc(N(C)C(=O)Nc4c(Cl)c(OC)cc(OC)c4Cl)ncn3)cc2)CC1 [BGJ398] + CS(=O)(=O)CCNCc1ccc(-c2ccc3ncnc(Nc4ccc(OCc5cccc(F)c5)c(Cl)c4)c3c2)o1 [Lapatinib] (partner 2 µM)
Outline: as §1

BGJ398 + Alpelisib = compound: CCN1CCN(c2ccc(Nc3cc(N(C)C(=O)Nc4c(Cl)c(OC)cc(OC)c4Cl)ncn3)cc2)CC1 [BGJ398] + Cc1nc(NC(=O)N2CCC[C@H]2C(N)=O)sc1-c1ccnc(C(C)(C)C(F)(F)F)c1 [Alpelisib] (partner 2 µM)
Outline: as §1

Row | Cell Line | relative viability ([1]; first compound 0.02 µM) | relative viability ([1]; first compound 0.06325 µM) | relative viability ([1]; first compound 0.2 µM) | relative viability ([1]; first compound 0.6325 µM) | relative viability ([1]; first compound 2 µM) | relative viability ([2]; first compound 0.02 µM) | relative viability ([2]; first compound 0.06325 µM) | relative viability ([2]; first compound 0.2 µM) | relative viability ([2]; first compound 0.6325 µM) | relative viability ([2]; first compound 2 µM) | relative viability (BGJ398 + Lapatinib; first compound 0.01 µM) | relative viability (BGJ398 + Lapatinib; first compound 0.03162 µM) | relative viability (BGJ398 + Lapatinib; first compound 0.1 µM) | relative viability (BGJ398 + Lapatinib; first compound 0.3162 µM) | relative viability (BGJ398 + Lapatinib; first compound 1 µM) | relative viability (BGJ398 + Alpelisib; first compound 0.01 µM) | relative viability (BGJ398 + Alpelisib; first compound 0.03162 µM) | relative viability (BGJ398 + Alpelisib; first compound 0.1 µM) | relative viability (BGJ398 + Alpelisib; first compound 0.3162 µM) | relative viability (BGJ398 + Alpelisib; first compound 1 µM)
1 | ChaGo-K-1 | 0.512 | 0.459 | 0.533 | 0.498 | 0.568 | 0.742 | 0.544 | 0.756 | 0.662 | 0.652 |  |  |  |  |  |  |  |  |  | 
2 | EBC-1 |  |  |  |  |  |  |  |  |  |  | 0.215 | 0.222 | 0.178 | 0.23 | 0.21 | 0.806 | 0.85 | 0.917 | 0.812 | 0.884
3 | EKVX | 0.258 | 0.399 | 0.287 | 0.337 | 0.373 | 0.704 | 0.576 | 0.761 | 0.709 | 0.594 | 0.178 | 0.199 | 0.204 | 0.201 | 0.169 | 0.798 | 0.665 | 0.95 | 0.842 | 0.977
4 | EMC-BAC-2 | 0.933 | 1.01 | 1.05 | 0.922 | 0.808 | 0.488 | 0.535 | 0.602 | 0.452 | 0.222 | 0.872 | 0.982 | 0.899 | 0.832 | 0.838 | 0.727 | 0.77 | 0.786 | 0.787 | 0.738
5 | EPLC-272H | 0.351 | 0.344 | 0.4 | 0.356 | 0.321 | 0.385 | 0.411 | 0.562 | 0.413 | 0.524 | 1.13 | 0.814 | 0.833 | 0.748 | 0.497 | 0.895 | 0.812 | 0.846 | 0.752 | 0.952
6 | H3255 | 0.6 | 0.649 | 0.595 | 0.534 | 0.622 | 0.781 | 0.884 | 0.835 | 0.865 | 0.67 | 0.288 |  | 0.238 | 0.241 | 0.219 | 0.676 |  | 0.747 | 0.37 | 0.792
7 | HARA | 0.537 | 0.587 | 0.498 | 0.614 | 0.63 | 0.548 | 0.463 | 0.522 | 0.487 | 0.406 | 0.67 | 0.531 | 0.472 | 0.362 | 0.217 | 0.784 | 0.635 | 0.752 | 0.817 | 0.787
8 | HCC-15 | 0.625 | 0.686 | 0.717 | 0.561 | 0.553 | 0.733 | 0.737 | 0.872 | 0.844 | 0.702 | 0.854 | 0.855 | 0.82 | 0.969 | 0.974 | 0.88 | 0.909 | 0.976 | 0.91 | 1.02
9 | HCC-44 | 0.872 | 1.07 | 0.942 | 0.961 | 0.843 | 0.959 | 1.13 | 1.08 | 1.13 | 1.17 | 0.973 | 1.01 | 1.01 | 1.04 | 0.993 | 0.8 | 0.761 | 0.763 | 0.856 | 0.815
